Six molecules from patent US9765105B2, “Macrolide compound” (Pulike Biological Engineering, Inc., priority 2013, dated 2017) can be followed below.

The test system of data set [1] is Streptococcus pneumoniae CMCC 31203. Description: in vivo antibacterial test, survival of infected mice. The arrangement: species or system BALB/c mice. The following applies: mice infected i.p. with Streptococcus pneumoniae; 5 mg per kg subcutaneous for 3 consecutive days; observed until the seventh day.
Data set [2] in a line: acute oral toxicity test, LD50 by improved karber method. The following applies: both, Konmin, mouse, in vivo, po.

In general, LD50 refers to the dose expected to kill half of the subjects tested. Low values mean greater toxicity, high ones lower toxicity. Take `CC[C@@H]1OC(=O)[C@H](C)[C@H](OC2C[C@@](C)(OC)[C@](O)(CNCC(C)C)[C@H](C)O2)[C@@H](C)[C@@H](O[C@@H]2O[C@H](C)C[C@H](N(C)C)[C@H]2O)[C@](C)(O)C[C@@H](C)NC[C@@H](C)[C@H](O)[C@]1(C)O` (stereo partly drawn) [syzx-12, (2R,3S,4R,5S,8R,10R,11R,12S,13S,14R)-13-[(2,6-dideoxy-3-C-methyl-3-O-methyl-4-C-[(isobutylamino)methyl]-α-L-ribopyranosyl)oxy]-2-ethyl-3,4,10-trihydroxy-3,5,8,10,12,14-hexamethyl-11-[[3,4,6-trideoxy-3-(dimethylamino)-β-D-xylo-hexopyranosy]oxy]-1-oxa-7-azacyclopentadecan-15-one]: the “Animal survival rate (surviving/total animals)” value in data set [1] is on record as 8/10. The molecule further registered a 50% lethal dose (LD50) at 7 days in data set [2] of 4310 mg/kg.
The like results for `CC[C@@H]1OC(=O)[C@H](C)[C@H](OC2C[C@@](C)(OC)[C@](O)(CNC(C)(C)C)[C@H](C)O2)[C@@H](C)[C@@H](O[C@@H]2O[C@H](C)C[C@H](N(C)C)[C@H]2O)[C@](C)(O)C[C@@H](C)NC[C@@H](C)[C@H](O)[C@]1(C)O` (stereo partly drawn) [syzx-14] were, in that order, 8/10 and 2590 mg/kg.
The like results for `CC[C@@H]1OC(=O)[C@H](C)[C@H](OC2C[C@@](C)(OC)[C@](O)(CN3CCCCC3)[C@H](C)O2)[C@@H](C)[C@@H](O[C@@H]2O[C@H](C)C[C@H](N(C)C)[C@H]2O)[C@](C)(O)C[C@@H](C)NC[C@@H](C)[C@H](O)[C@]1(C)O` (stereo partly drawn) [syzx-15, (2R,3S,4R,5S,8R,10R,11R,12S,13S,14R)-13-[(2,6-dideoxy-3-C-methyl-3-O-methyl-4-C-[piperidinylmethyl]-α-L-ribopyranosyl)oxy]-2-ethyl-3,4,10-trihydroxy-3,5,8,10,12,14-hexamethyl-11-[[3,4,6-trideoxy-3-(dimethylamino)-β-D-xylo-hexopyranosy]oxy]-1-oxa-7-azacyclopentadecan-15-one] were, in that order, 8/10 and 2660 mg/kg.
The like results for `CC[C@@H]1OC(=O)[C@H](C)[C@H](OC2C[C@@](C)(OC)[C@](O)(CNCC3CC3)[C@H](C)O2)[C@@H](C)[C@@H](O[C@@H]2O[C@H](C)C[C@H](N(C)C)[C@H]2O)[C@](C)(O)C[C@@H](C)NC[C@@H](C)[C@H](O)[C@]1(C)O` (stereo partly drawn) [syzx-17, (2R,3S,4R,5S,8R,10R,11R,12S,13S,14R)-13-[(2,6-dideoxy-3-C-methyl-3-O-methyl-4-C-[(cyclopropylmethylamino)methyl]-α-L-ribopyranosyl)oxy]-2-ethyl-3,4,10-trihydroxy-3,5,8,10,12,14-hexamethyl-11-[[3,4,6-trideoxy-3-(dimethylamino)-β-D-xylo-hexopyranosy]oxy]-1-oxa-7-azacyclopentadecan-15-one] were, in that order, 8/10 and 2670 mg/kg.
Turning to `CC[C@@H]1OC(=O)[C@H](C)[C@H](OC2C[C@@](C)(OC)[C@](O)(CNCCOC)[C@H](C)O2)[C@@H](C)[C@@H](O[C@@H]2O[C@H](C)C[C@H](N(C)C)[C@H]2O)[C@](C)(O)C[C@@H](C)NC[C@@H](C)[C@H](O)[C@]1(C)O` (stereo partly drawn) [syzx-58], in data set [1], the “Animal survival rate (surviving/total animals)” value is reported as 8/10. Besides, the LD50 at 7 days in data set [2] turned out to be 3550 mg/kg.
The like results for `CCCN1C[C@@H](C)[C@@H](O)[C@](C)(O)[C@H](CC)OC(=O)[C@H](C)[C@H](OC2C[C@@](C)(OC)[C@](O)(CN(C)CC)[C@H](C)O2)[C@H](C)[C@@H](O[C@@H]2O[C@H](C)C[C@H](N(C)C)[C@H]2O)[C@](C)(O)C[C@H]1C` (stereo partly drawn) [syzx-213] were, in that order, 9/10 and 2790 mg/kg.
